Tests used:
AGS cells (KRAS G12D) = experiment: Cell viability assay (Cell Counting Kit-8, 3-day); format: cell-based, human; conditions: Homo sapiens, 72 h, 72 hrs incubation
Summary of the method: (§1)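 IC50 derived by 4-parameter sigmoidal fit of CCK-8 signal (OD450−OD650, 2 h development) after 72 h compound exposure in 0.5% DMSO. Seeding density was 5,000 cells/well for NCI-H358 and 2,000 cells/well for AGS and SW620, plated overnight before dosing.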

[1] = test system: NCI-H358 cells (KRAS G12C); experiment: Cell viability assay (Cell Counting Kit-8, 3-day); format: cell-based, human; conditions: Homo sapiens, NCI-H358, 72 h, NCI-H358, 72 hrs incubation
Summary of the method: as §1

SW620 cells (KRAS G12V) = experiment: Cell viability assay (Cell Counting Kit-8, 3-day); format: cell-based, human; conditions: Homo sapiens, SW-620; SW620, 72 hrs incubation
Summary of the method: as §1

KRAS G12C-BRAF complex = KRAS G12C-BRAF complex (Homo sapiens (Human), UniProt P01116+P62937, G12C); experiment: KRAS-BRAF with CYPA (500 nM) interaction assay (TR-FRET, Example 136); format: biochemical; conditions: KRAS G12C-BRAF disruption
[2] = test system: phosphorylation of ERK, KRAS G12C in NCI-H358 cells; experiment: pERK inhibition assay; format: cell-based; conditions: Homo sapiens, NCI-H358, 4 h
Summary of the method: (§2)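 Phospho-ERK quantified by in-cell ELISA with TMB read-out at OD450 following 4 h compound exposure (final 0.5% DMSO). Cell lines were SW620 (KRAS G12V), AGS (G12D) and NCI-H358 (G12C), grown in RPMI-1640 with 10% FBS. A 4-parameter sigmoidal model gave the IC50.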

[3] = test system: phosphorylation of ERK, KRAS G12D in AGS cells; experiment: pERK inhibition assay; format: cell-based; conditions: Homo sapiens, AGS, 4 h
Summary of the method: as §2

[4] = test system: phosphorylation of ERK, KRAS G12V in SW620; experiment: pERK inhibition assay; format: cell-based; conditions: Homo sapiens, SW-620, 4 h, SW620 cells
Summary of the method: as §2

Sequence of KRAS G12C-BRAF complex (P01116-2 other isoform, or with tags, fused parts or gaps G12C): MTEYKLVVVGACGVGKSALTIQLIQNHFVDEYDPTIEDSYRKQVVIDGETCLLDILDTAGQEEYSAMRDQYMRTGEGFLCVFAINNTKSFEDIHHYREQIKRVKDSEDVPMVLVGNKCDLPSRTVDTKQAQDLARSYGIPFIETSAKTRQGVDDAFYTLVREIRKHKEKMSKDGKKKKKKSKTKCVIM
Sequence of KRAS G12C-BRAF complex (P62937 whole entry): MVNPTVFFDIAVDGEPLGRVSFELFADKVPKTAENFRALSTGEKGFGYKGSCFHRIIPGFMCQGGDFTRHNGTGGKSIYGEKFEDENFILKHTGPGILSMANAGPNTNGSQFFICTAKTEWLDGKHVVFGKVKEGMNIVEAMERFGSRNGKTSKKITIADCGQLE

| Compound | IC50 (AGS cells (KRAS G12D)) | IC50 [1] | IC50 (SW620 cells (KRAS G12V)) | IC50 (KRAS G12C-BRAF complex) | IC50 [2] | IC50 [3] | IC50 [4] |
| --- | --- | --- | --- | --- | --- | --- | --- |
| CO[C@@H](C)c1ncc(N2CCN(C)CC2)cc1-c1c2c3cc(cc4c3n1CCC4)-c1csc(n1)C[C@H](NC(=O)[C@H]1C[C@@H]1c1cccnn1)C(=O)N1CCC[C@H](N1)C(=O)OCC(C)(C)C2 (atropisomer, axis not shown; (M)) [Example 63, (1S,2S)-N-[(7S,13S)-(20M)-20-[2-[(1S)-1-methoxyethyl]-5-(4-methylpiperazin-1-yl)-3-pyridyl]-17,17-dimethyl-8,14-dioxo-15-oxa-4-thia-9,21,30,31-tetrazahexacyclo[23.3.1.1^2,5.1^9,13.0^19,27.0^21,26]hentriaconta-1 (28),2,5 (31), 19,25 (29),26-hexaen-7-yl]-2-pyridazin-3-yl-cyclopropanecarboxamide] | 78 nM | 10.6 nM | 4.2 nM | 34 nM | 5.1 nM | 18.3 nM | 3 nM |
| CO[C@@H](C)c1ncc(N2CCN(C)CC2)cc1-c1c2c3cc(cc4c3n1CCO4)-c1csc(n1)C[C@H](NC(=O)[C@@H]1C[C@H]1C1CC1)C(=O)N1CCC[C@H](N1)C(=O)OCC(C)(C)C2 (atropisomer, axis not shown; (M)) [Example 64, (1R,2S)-2-cyclopropyl-N-[(7S,13S)-(20M)-20-[2-[(1S)-1-methoxyethyl]-5-(4-methylpiperazin-1-yl)-3-pyridyl]-17,17-dimethyl-8,14-dioxo-15,24-dioxa-4-thia-9,21,30,31-tetrazahexacyclo[23.3.1.1^2,5.1^9,13.0^19,27.0^21,26]hentriaconta-1 (29),2,5 (31), 19,25,27-hexaen-7-yl]cyclopropanecarboxamide] | 21.9 nM | 8 nM | 1.3 nM | 17.2 nM | 1.2 nM | 3.7 nM | 0.6 nM |
| CO[C@@H](C)c1ncc(N2CCOCC2)cc1-c1c2c3cc(cc4c3n1CCO4)-c1csc(n1)C[C@H](NC(=O)[C@H]1[C@H](C)[C@@H]1C)C(=O)N1CCC[C@H](N1)C(=O)OCC(C)(C)C2 (atropisomer, axis not shown; (M)) [Example 68, (1r,2R,3S)-N-[(7S,13S)-(20M)-20-[2-[(1S)-1-methoxyethyl]-5-morpholino-3-pyridyl]-17,17-dimethyl-8,14-dioxo-15,24-dioxa-4-thia-9,21,30,31-tetrazahexacyclo[23.3.1.1^2,5.1^9,13.0^19,27.0^21,26]hentriaconta-1 (29),2,5 (31),19,25,27-hexaen-7-yl]-2,3-dimethyl-cyclopropanecarboxamide] | 7.8 nM | 3.2 nM | 0.5 nM | 16.8 nM | 0.2 nM | 3.9 nM | 0.3 nM |
| CO[C@@H](C)c1ncc(N2CCN(C)CC2)cc1-c1c2c3cc(cc4c3n1CC(C)(C)C4)-c1csc(n1)C[C@H](NC(=O)[C@H]1[C@H](C)[C@@H]1C)C(=O)N1CCC[C@H](N1)C(=O)OCC(C)(C)C2 (atropisomer, axis not shown; (M)) [Example 69, (1r,2S,3R)-N-[(7S,13S)-(20M)-20-[2-[(1S)-1-methoxyethyl]-5-(4-methylpiperazin-1-yl)-3-pyridyl]-17,17,23,23-tetramethyl-8,14-dioxo-15-oxa-4-thia-9,21,30,31-tetrazahexacyclo[23.3.1.1^2,5.1^9,13.0^19,27.0^21,26]hentriaconta-1 (28),2,5 (31), 19,25 (29),26-hexaen-7-yl]-2,3-dimethyl-cyclopropanecarboxamide] | 75.4 nM | 19.2 nM | 4.4 nM | 35.7 nM | 1.5 nM | 11.3 nM | 1.5 nM |
| CO[C@@H](C)c1ncc(N2CCOCC2)cc1-c1c2c3cc(cc4c3n1CC(F)(F)C4)-c1csc(n1)C[C@H](NC(=O)[C@H]1C[C@@H]1C)C(=O)N1CCC[C@H](N1)C(=O)OCC(C)(C)C2 (atropisomer, axis not shown; (M)) [Example 75, (1S,2S)-N-[(7S,13S)-23,23-difluoro-(20M)-20-[2-[(1S)-1-methoxyethyl]-5-morpholino-3-pyridyl]-17,17-dimethyl-8,14-dioxo-15-oxa-4-thia-9,21,30,31-tetrazahexacyclo[23.3.1.1^2,5.1^9,13.0^19,27.0^21,26]hentriaconta-1 (28),2,5 (31),19,25 (29),26-hexaen-7-yl]-2-methyl-cyclopropanecarboxamide] | 58.7 nM | 20.2 nM | 3.6 nM | 29.7 nM | 4.9 nM | 23.6 nM | 2.6 nM |
| CO[C@@H](C)c1ncc(N2CCOCC2)cc1-c1c2c3cc(cc4c3n1CC(F)(F)C4)-c1csc(n1)C[C@H](NC(=O)[C@H]1[C@H](C)[C@@H]1C)C(=O)N1CCC[C@H](N1)C(=O)OCC(C)(C)C2 (atropisomer, axis not shown; (M)) [Example 76, (1r,2S,3R)-N-[(7S,13S)-23,23-difluoro-(20M)-20-[2-[(1S)-1-methoxyethyl]-5-morpholino-3-pyridyl]-17,17-dimethyl-8,14-dioxo-15-oxa-4-thia-9,21,30,31-tetrazahexacyclo[23.3.1.1^2,5.1^9,13.0^19,27.0^21,26]hentriaconta-1 (28),2,5 (31), 19,25 (29),26-hexaen-7-yl]-2,3-dimethyl-cyclopropanecarboxamide] | 4.9 nM | 2.1 nM | 0.3 nM | 9.1 nM | 0.7 nM | 3.9 nM | 0.2 nM |
| CO[C@@H](C)c1ncc(N2CCN(C)CC2)cc1-c1c2c3cc(cc4c3n1CC(F)(F)C4)-c1csc(n1)C[C@H](NC(=O)[C@H]1[C@H](C)[C@@H]1C)C(=O)N1CCC[C@H](N1)C(=O)OCC(C)(C)C2 (atropisomer, axis not shown; (M)) [Example 83] | 9.2 nM | 3.1 nM | 0.5 nM | 10.3 nM | 0.9 nM | 6 nM | 0.5 nM |
| CO[C@@H](C)c1ncc(N2CCN(CC(F)(F)F)CC2)cc1-c1c2c3cc(cc4c3n1CCO4)-c1csc(n1)C[C@H](NC(=O)[C@H]1[C@H](C)[C@@H]1C)C(=O)N1CCC[C@H](N1)C(=O)OCC(C)(C)C2 (atropisomer, axis not shown; (M)) [Example 85, (1r,2S,3R)-N-[(7S,13S)-(20M)-20-[2-[(1S)-1-methoxyethyl]-5-[4-(2,2,2-trifluoroethyl)piperazin-1-yl]-3-pyridyl]-17,17-dimethyl-8,14-dioxo-15,24-dioxa-4-thia-9,21,30,31-tetrazahexacyclo[23.3.1.1^2,5.1^9,13.0^19,27.0^21,26]hentriaconta-1 (28),2,5 (31),19,25 (29),26-hexaen-7-yl]-2,3-dimethyl-cyclopropanecarboxamide] | 13 nM | 9 nM | 1 nM | 18.8 nM | 1.7 nM | 5.6 nM | 0.6 nM |

From patent publication US20240417410A1, “TRICYCLIC COMPOUNDS FOR THE TREATMENT OF CANCER” (Hoffmann-La Roche Inc., priority 2023, published 2024)
